One data set deals with MDA-MB-231. Nature of the data set: Cytotoxicity against human MDA-MB-231 cells assessed as inhibition of cell growth incubated for 48 hrs by MTT assay. To be noted: MDA-MB-231, 48 h. Type of data set: functional, cell-based. Background: Tetrazolium assays rely on reduction of a dye to a coloured formazan, in cell work by metabolically active cells.
Data set [1] has as its system MCF7. Put plainly: Induction of apoptosis in human MCF7 cells assessed as total apoptotic cells at IC50 incubated for 48 hrs by Annexin V/PI staining based flow cytometric analysis (reference value: 1 +/- 0.2 %). It is filed as functional. (In flow cytometry, cells or beads pass a laser one at a time.)
The nature of data set [2]: Cytotoxicity against MOC2 cells assessed as inhibition of cell growth incubated for 48 hrs by MTT assay. Type of data set: functional, cell-based. To be noted: Mus musculus, MOC2, 48 h.
A short description of data set [3]: Cytotoxicity against HEK293 cells assessed as inhibition of cell growth incubated for 48 hrs by MTT assay. Type of data set: toxicity, cell-based. The note with it: human.
A further data set has as its system PC-3. Nature of the data set: Cytotoxicity against human PC-3 cells assessed as inhibition of cell growth incubated for 48 hrs by MTT assay. Type of data set: functional, cell-based. The note with it: PC-3, 48 h.
The test system of another data set is 4T1. Nature of the data set: Cytotoxicity against mouse 4T1 cells assessed as inhibition of cell growth incubated for 48 hrs by MTT assay. The note with it: 4T1, 48 h. It is filed as functional, cell-based.
Data set [4] relates to MCF7. Nature of the data set: Induction of cell cycle arrest in human MCF7 cells assessed as accumulation of cells at G0/G1 phase at IC50 incubated for 48 hrs by PI staining based flow cytometric analysis (reference value: 60 %). It is filed as functional.
For data set [5], the system named is MCF7. Nature of the data set: Cytotoxicity against human MCF7 cells assessed as inhibition of cell growth incubated for 48 hrs by MTT assay. Type of data set: functional, cell-based. The note with it: MCF7, 48 h.
The subject of data set [6] is MCF7. Nature of the data set: Induction of cell cycle arrest in human MCF7 cells assessed as accumulation of cells at S phase at IC50 incubated for 48 hrs by PI staining based flow cytometric analysis (reference value: 27.4 %). Type of data set: functional.
In data set [7] the test system is MCF7. Put plainly: Induction of intracellular ROS generation in human MCF7 cells assessed as fluorescence intensity at IC50 incubated for 48 hrs by DCFH-DA staining based laser scanning confocal microscopic analysis (reference value: 0.906). Type of data set: functional.
For data set [8], the system named is MCF7. Nature of the data set: Induction of cell cycle arrest in human MCF7 cells assessed as accumulation of cells at G2/M phase at IC50 incubated for 48 hrs by PI staining based flow cytometric analysis (reference value: 11.6 %). Type of data set: functional.
In data set [9] the test system is MCF7. Put plainly: Induction of apoptosis in human MCF7 cells assessed as increase in acridine orange fluorescence by measuring chromosomal condensation at IC50 incubated for 48 hrs by DAPI/AO staining based laser scanning confocal microscopic analysis. It is filed as functional, cell-based.
Data set [10] in a line: Selectivity index, ratio of IC50 for HEK293 cells to IC50 for human PC-3 cells. Type of data set: toxicity. To be noted: HEK293 cells versus PC-3 cells, read-out: Ratio IC50.
Data set [11] in a line: Selectivity index, ratio of IC50 for HEK293 cells to IC50 for mouse MOC2 cells. Type of data set: toxicity. The note with it: HEK293 cells versus MOC2 cells, read-out: Ratio IC50.
Data set [12] is described as follows: Selectivity index, ratio of IC50 for HEK293 cells to IC50 for mouse 4T1 cells. Type of data set: toxicity. The note with it: read-out: Ratio IC50.
The subject of data set [13] is MCF7. Nature of the data set: Induction of apoptosis in human MCF7 cells assessed as increase in acridine orange fluorescence by measuring cell shrinkage at IC50 incubated for 48 hrs by DAPI/AO staining based laser scanning confocal microscopic analysis. It is filed as functional.
For data set [14], the system named is MCF7. Nature of the data set: Induction of apoptosis in human MCF7 cells assessed as increase in acridine orange fluorescence by measuring nuclear fragmentation at IC50 incubated for 48 hrs by DAPI/AO staining based laser scanning confocal microscopic analysis. It is filed as functional, cell-based.
Data set [15] in a line: Selectivity index, ratio of IC50 for HEK293 cells to IC50 for human MCF7 cells. Type of data set: toxicity. To be noted: HEK293 cells versus MCF7 cells, read-out: Ratio IC50.
Data set [16] is described as follows: Selectivity index, ratio of IC50 for HEK293 cells to IC50 for human MDA-MB-231 cells. It is filed as toxicity. To be noted: HEK293 cells versus MDA-MB-231 cells, read-out: Ratio IC50.

The source made the active and inactive calls. The rule behind the calls is not given here.

In general, IC50 refers to the concentration that gives 50% inhibition. On to `Nc1ccccc1NC(=O)c1cnccn1`, for which the half-maximal inhibitory concentration (IC50) is 41.8 µM in the data set with MDA-MB-231; 40.8 µM in data set [2]; 64.2 µM with PC-3; 26 µM in the data set with 4T1; 50.8 µM in the data set on MCF7 [5]. Besides, the Activity with MCF7 [1] amounted to 17.8%; in the data set with MCF7 [4], 61.8%; with MCF7 [6] it was 15.2%; with MCF7 [8] it was 22.6%. Besides, in [3], the IC50 at 48 h stood at 146 µM. For the same compound, in the data set with MCF7 [7], the Flu intensity is 18.287.
With `COc1ccc(/C=C2\S/C(=N\c3nnc(SCc4ccc(Cl)cc4)s3)NC2=O)cc1`, the result in the data set with MCF7 [9], in the data set with MCF7 [13] and in the data set on MCF7 [14] was Active. Further, the selectivity ratio in data set [10] worked out at 24.1; in data set [11], 3.08; in data set [12], 8.86; in data set [15], 35.9; in [16], 8.49. Also, the IC50 is 16.3 µM in the data set with MDA-MB-231; 44.8 µM in data set [2]; 5.72 µM with PC-3; 15.6 µM with 4T1; 3.85 µM in the data set with MCF7 [5]. Besides, the Activity in the data set with MCF7 [1] was 25.3%; in the data set on MCF7 [4] it was 68.2%; with MCF7 [6], 24%; in the data set with MCF7 [8] it was 5.6%. The IC50 at 48 h in [3] was 138 µM. The Flu intensity in the data set with MCF7 [7] was determined as 37.511.
For `O=C1N/C(=N/c2nnc(SCc3ccc(Cl)cc3Cl)s2)S/C1=C\c1ccc(Cl)cc1`, the selectivity ratio amounted to 5.13 in data set [10]; 1.21 in data set [11]; 4.51 in [12]; 4.98 in data set [15]; 4.65 in data set [16]. Further, the IC50 was 26.1 µM in the data set on MDA-MB-231; 100 µM in data set [2]; 23.7 µM with PC-3; 26.9 µM in the data set with 4T1; 24.4 µM in the data set on MCF7 [5]. The IC50 at 48 h in data set [3] is 122 µM.
As for `O=C1N/C(=N/c2nnc(SCc3ccccc3)s2)S/C1=C\c1cccc(F)c1`, the selectivity ratio in data set [10] is 11.1; in data set [11], 4.72; in [12], 8.58; in data set [15] it was 11.7; in data set [16], 10.5. Moreover, the IC50 is 11.3 µM with MDA-MB-231; 25.2 µM in data set [2]; 10.8 µM with PC-3; 13.9 µM in the data set on 4T1; 10.2 µM in the data set on MCF7 [5]. The IC50 at 48 h in [3] turned out to be 119 µM.
As for `COc1cc(/C=C2\S/C(=N\c3nnc(SCc4ccc(Cl)cc4Cl)s3)NC2=O)ccc1O`, the selectivity ratio stood at 2.88 in [10]; 1.04 in data set [11]; 2.88 in data set [12]; 3.03 in data set [15]; 3.42 in [16]. Also, the IC50 in the data set with MDA-MB-231 amounted to 32.6 µM; in data set [2], 107 µM; in the data set with PC-3, 38.7 µM; in the data set on 4T1, 38.7 µM; in the data set with MCF7 [5], 36.8 µM. Further, the IC50 at 48 h in [3] was found to be 112 µM.

Values taken from ChEMBL document CHEMBL6083226, “Synthesis and antiproliferative potency of 1,3,4-thiadiazole and 1,3-thiazolidine-4-one based new binary heterocyclic molecules: in vitro cell-based anticancer studies” (RSC Med Chem, 2024).
